These results are taken from ChEMBL document CHEMBL1152920, “Monoterpene glucosides from Paeonia lactiflora” (J Nat Prod, 2009).

This assay relates to PC-12. As to the kind of experiment: Cytoprotective activity against hydrogen peroxide-induced cell damage in rat PC12 cells assessed as cell viability treated 2 hrs before hydrogen peroxide challenge by MTT assay. It is filed as functional, cell-based. (Tetrazolium assays rely on reduction of a dye to a coloured formazan, in cell work by metabolically active cells.)

Activity calls are given as the source filed them. The calls are words filed in the database; no cut-off is given here.

`C=C1C(OC)O[C@]2(O[C@@H]3O[C@H](CO)[C@@H](O)[C@H](O)[C@H]3O)C[C@H]1C(=O)C=C2C` (some centres undefined): the result was Active.
Next, `CC1=CC(=O)[C@@H]2C[C@@]1(O[C@@H]1O[C@H](CO)[C@@H](O)[C@H](O)[C@H]1O)OC=C2CO`: “Active”.
As to `COCC1=CO[C@]2(O[C@@H]3O[C@H](CO)[C@@H](O)[C@H](O)[C@H]3O)C[C@H]1C(=O)C=C2C`, the outcome was Active.
Then `COC1O[C@@]2(C)CC(=O)[C@@H]3C[C@]2(O[C@@H]2O[C@H](CO)[C@@H](O)[C@H](O)[C@H]2O)[C@]13CO` (some centres undefined), with “Active”.
